From US20210402011A1, “A COMPOUND FOR THE DETECTION OF HNO IN BIOLOGICAL SYSTEMS” (COUNCIL. OF SCIENTIFIC AND INDUSTRIAL RESEARCH, priority 2016, published 2021)

Legend:
[1] = system: RAW 264.7 cells; assay: MTT assay, in vitro cytotoxicity on RAW 264.7 cells; format: cell-based
Description: The in vitro cytotoxicity of ER-HNO on RAW 264.7 cells were determined by conventional MTT (3-(4, 5-Dimethylthiazol-2-yl)-2, 5-diphenyltetrazolium bromide) assay. RAW 264.7 cells (5×103) were seeded in each well of a 96 well plate and cultured in a 37° C. incubator supplied with 5% CO2. Cells were maintained in DMEM medium, supplemented with 10% Foetal Bovine Serum and 100 Units of Penicillin Streptomycin antibiotics. After 24 hours the cells were treated with different concentrations of the ER-HNO in triplicates for 24 hours. After the treatment, cells were added with […] of MTT reagent. The plate was then incubated for 4 hours at 37° C. 100 μl of Isopropyl Alcohol was added to each well. Optical density was measured at 570 nm using Multiskan Go (Thermo Scientific) to find the concentration of the cell inhibition. IC50 value has been calculated to be 90 μM.
The formula used for the calculation of the MTT assay for evaluation of the cell viability was as follows:
Cell viability (%)=(Means of absorbance value of treated group/Means of absorbance value of untreated control)×100.

[2] = system: Hct116 cells; assay: MTT assay towards live Hct116; format: cell-based
Description: (§1) An MTT assay confirmed the non-toxic nature of probe ER-HNO towards live Hct116. Therefore, ER-HNO is tested as an imaging reagent for the detection of HNO in Hct116 colon cancer. The cells are incubated with probe ER-HNO (1 μM) for 15 min at 37° C. in acetonitrile-PBS buffer (0.2:99.8, v/v) at pH 7.2 and no intracellular fluorescence is observed.

[3] = Fluorescence emission studies for HNO detection in aq. PBS buffer-CH3CN
Description: The spectroscopic properties of ER-HNO in aq. PBS buffer medium under physiological pH medium. No significant difference is observed in the electronic spectra of ER-HNO and ER-S. In order to check the response of ER-HNO probe (10 uM) with in presence of 20 mole equivalent of various ROS and RNS (HNO, HOCl, H2O2, —OH, TBHP, NO3^−, NO2^−, benzoyl peroxide, S^2− and ascorbate) emission spectra are recorded in aq. […] A turn ON emission response is observed for probe ER-HNO, only in presence of HNO with λEms^Max=580 nm (λExt=530 nm). Moreover, no significant changes are observed in presence of different anionic, cationic as well as biothiols under identical experimental condition. The effects of pH on emission spectrum of probe ER-HNO is also investigated. […] Therefore, to explore the bio analytical application, all the studies are carried out at physiological pH medium.
An enhancement in emission signal are observed at λMax=586 nm (Φ=0.105, for λExt=530 nm) with gradual increasing [HNO] (FIG. 1B). A good linearity is observed between emission intensity and concentration of HNO in the range of 2-15 uM, with a lower detection limit of 2 μM. […] PBS buffer medium.
Stock solution of probe ER-HNO (1×10^−4M) was prepared in HPLC grade acetonitrile. All the analytes stock solution (1×10^−2M) was prepared in aqueous HEPES buffer (10 mM) medium at pH 7.2. […]

[4] = system: SERCA2; assay: Western blot monitoring of SERCA2; format: cell-based; conditions: HCT116 cells, Angeli's salt 10 uM, ER-HNO 30 μM, 24 hrs
Description: HCT116 cells were cultured in DMEM medium containing 10% Fetal Bovine Serum (FBS) supplemented with 100 Units of Penicillin Streptomycin antibiotics. Cells were treated with Angeli's salt 10 uM, ER-HNO 30 μM or both for 24 hrs. Prior to the treatment processes, DMEM medium was treated with N-Ethylmalemide (NEM) 1 mM and this medium was used to culture the cells. Post 24 hrs cells harvested and whole cell lysate proteins extracted. 40 ug of the proteins were resolved in SDS PAGE gel and transferred into PVDF membrane using Western Blot methods. The blot was over-night blocked with 5% Bovine Serum Albumin (BSA) at 4° C. 1:4000 dilution of SERCA2 antibody was to probe the blot for 2 hrs at room-temperature (RT). After three washes with 1×TBST, 1:4000 dilution of anti-rabbit HRP conjugated antibody was used to probe the blot for 1 hr at RT. After three washes with IX TBST, the blot was developed using auto-radiography in X-ray film.

[5] = system: Hct116 cells; assay: Flow cytometry, DCFDA staining; format: cell-based; conditions: Angeli's salt 10 uM, 30 uM probe, 2 hrs
Description: For DCFDA staining, HCT116 cells were cultured in DMEM medium containing 5 mM glucose supplemented with 10% FBS and 100 Units of antibiotics. Prior to the treatment processes, DMEM medium with 1% FBS was treated with N-Ethylmalemide (NEM) 1 mM and this medium was used to culture the cells further. Cells were treated with Angeli's salt 10 uM, L 30 uM or both for 2 hrs. After treatment cells were harvested by trypsinization and washed with complete DMEM media by centrifugation. Pellet was suspended in 1 ml of PBS buffer. 10 μM DCFDA (Sigma) was added to cells followed by incubation at 37° C. 5% CO2 incubator for 45 mins. DCFDA stained cells were analyzed in BD FACS Canto II using FITC channel. For Annexin V staining cultured HCT116 cells were harvested after trypsinization and washed with 1×PBS buffer. 500 ul of Annexin V binding buffer was used to re-suspend the cells. 5 ul of Annexin-V FITC antibody added to the re-suspended cell and incubated in dark for 5 mins. Antibody stained cells were then analyzed using BD Calibur FACs in FITC channel. The flow cytometry experiment confirmed that probe ER-HNO is capable of reducing RNS & ROS level induced by HNO [FIG. 5 (b)].

[6] = system: Hct116 cells; assay: CLSM imaging of HNO in Hct116 cells; format: cell-based; conditions: Hct116, probe 1 μM 15 min, then HNO 20 μM
Description: as §1
For confocal studies, Hct116 cells (3×10^5) were seeded on cover slips placed in 6 well plates. After 24 hours, Hct116 cells were treated with ER-HNO (1 μM) for 30 minutes at 37° C. in a 5% CO2 air environment. Cells were then washed thrice with Phosphate Buffer (1×PBS) and fixed with 4% PFA for 20 minutes and washed again with IX PBS. Nail paint was used to seal the cover slips mounted on the glass slides for each well plates. Again Hct116 cells were pre-treated with ER-HNO (1 μM) for 15 minutes, then Hct116 cells were further expose to Angeli's salt (HNO donor), then cells were washed thrice with media and followed by incubation with ER-HNO (1 μM) for another 15 minutes under same conditions. Cells were again washed with 1×PBS buffer and fixed with 4% PFA for 20 minutes and washed again with 1×PBS. Confocal laser scanning microscopic (CLSM) images were acquired in Olympus Fluoview Microscope with λExt/λMon=530/573 nm.

[7] = system: RAW 264.7 cells; assay: CLSM imaging of HNO in RAW 264.7 cells; format: cell-based; conditions: RAW 264.7, probe 1.0 μM 15 min 37° C., then AS
Description: The toxicity of the probe molecule toward live RAW 264.7 macrophages cells and cytotoxicity assays confirmed the low toxicity of the probe. The results encouraged to explore the use of the probe as an imaging reagent for the intracellular detection of HNO in these macrophage cells. Cells in DMEM culture media are incubated with ER-HNO (1.0 μM) for 15 min at 37° C. and subsequently viewed under confocal laser scanning microscope (CLSM) using a 530 nm laser as an excitation source.
RAW 264.7 cells were seeded on cover slips placed in 6 well plates. After 24 hours cells washed with DMEM medium then cells were treated with ER-HNO (1 μM) for 25 minutes. Cells were then washed thrice with culture medium and further treated with Angeli's salt (HNO donor) of different concentration for 30 min. After that cells were washed again with Phosphate Buffer Saline (3×PBS). Then cells were fixed with 4% PFA for 10 min. Again cells were washed thrice and then cover slips mounted using mounting medium. Nail paints was used to seal the coverslips mounted on the glass slides. Images were acquired by using Olympus FluoView FV-1000 Confocal Microscope.
RAW 264.7 cells were seeded on Coverslips (22 mm×22 mm, 170±5 μm square Cover glasses) placed in 6-well plates in DMEM culture medium containing (10% FBS and 1% penicillin-streptomycin) for 24 h at 37° C. 5% CO2. […]

[8] = system: Artemia nauplii; assay: Fluorescence imaging of Artemia nauplii; format: in vivo; conditions: probe 1 μM 30 minutes, then HNO
Description: Imaging of Artemia nauplii by luminescence was performed using a fluorescence microscope with a 20×, 0.4 NA microscope objective (Olympus), coupled to an intensified CCD camera. The Artemia nauplii were imaged in both bright-field and epifluorescence geometries. The latter was enabled by a fluorescence filter set. The illumination intensity was about 10 W/mm^2.

(E)-4-(2-(5,5-difluoro-1,7,9-trimethyl-10-phenyl-5H-5l4,6l4-dipyrrolo[1,2-c:2′,1′-f][1,3,2]diazaborinin-3-yl)vinyl)phenyl 2-(diphenylphosphanyl)benzoate [ER-HNO]
IC50 ([1]; RAW 264.7 cells, 24 hours treatment, read-out: IC50 (MTT cell viability)): 90 µM
toxicity toward live RAW 264.7 macrophages cells ([1]; cytotoxicity assays): low toxicity
toxicity towards live Hct116 (MTT assay) [2]: non-toxic
emission intensity of the probe within pH range 4-10 ([3]; pH 4-10): remains unaltered
change in emission intensity in presence of other ROS/RNS (selectivity) ([3]; probe 10 uM, 20 mole equivalent of HOCl, H2O2, OH, TBHP, NO3-, NO2-, benzoyl peroxide, S2-, ascorbate): no change in emission intensity
counteraction of the stabilized expression of SERCA2 [4]: at least 50%
RNS induced by Angeli's Salt (DCFDA staining) [5]: reduced
intracellular fluorescence after HNO exposure [6]: strong intracellular fluorescence
intracellular fluorescence after exposure to AS [7]: strong intracellular fluorescence
fluorescence in Artemia nauplii on exposure to HNO [8]: strong fluorescence
